From US20050042603A1, “Compositions and methods for peptide-assisted transfection” (Allele Biotechnology & Pharmaceuticals, Inc., priority 2003, published 2005)
Ends that are not written are not given here.

Experiments:
293T cells = format: cell-based, human; conditions: for Effect of other salts on enhancing TAN-mediated transfection: salt in place of CaCl2
Experimental: 293T (human embryonic kidney) cells were grown in Dulbecco's modified Eagle's medium (Life Technologies, Rockville, Md.) supplemented with 10% FBS, 100 units/ml penicillin, and 100 μg/ml of streptomycin in a 37° C. CO2 incubator. Cells were regularly passed to maintain growth. Twenty-four hours before transfection, cells were trypsinized and plated on 96-well plates (100 μl/well) in the above medium without the antibiotics. Ten μl of fraction 2 was added to 293T cells at 15% confluency in serum-containing medium. Fluorescence microscopy was performed at 12 hours, after changing medium and washing cells.
TAN (SEQ ID NO:3) at 0.1 to 5 μg per 96-well transfection was mixed with 0.1 μg plasmid pEGFP-N1 (BD ClonTech) for 5 min, diluted in 40 μl DMEM, then added to cells. Fluorescence microscopy was performed at different time points to observe the expression of GFP as the indication of transfection event. Note that by using GFP as reporter, the total transfection efficiency was underestimated due to certain percentage of cells would not express the GFP to levels high enough for detection.
Different concentrations of TAN (SEQ ID NO:3) and CaCl2 were tested in combination for transfection. TAT (SEQ ID NO:1) and another peptide, HT 31 (a widely used PKA-anchor interaction interruption peptide) were included as controls. Generally, experiments were performed similarly as in the above examples except that peptide was added to DNA first, followed by addition of CaCl2.

[1] = test system: approximately 300 bp PCR product linear dsDNA; assay: Band-shift assay with short linear dsDNA (siRNA-expressing PCR product); format: binding; conditions: 30 min reaction, 2% gel
Experimental: In order to examine whether TAN could directly interact with the transfected plasmid DNA as predicted by the transfection results, band-shift assays were performed. Different amount of TAN (SEQ ID NO:3) dissolved in H2O was mixed with 0.5 μg of plasmid with or without 15 mM CaCl2, incubated for 5 min, followed by addition of 2 μl of DNA loading dye (30% glycerol), and loaded to 0.7% agarose gel. The EB-containing gel was run for about 45 min at 120 volts before the picture taken under UV lights.
The ability of TAN (SEQ ID NO:3) to bind short linear dsDNA also was examined. The DNA tested was an approximately 300 bp PCR product that is used to express small interfering RNAs (siRNAs). The experiments were done similarly to those described in Example 6, except that the reactions were allowed to proceed to 30 min and the gel was 2%. […] This difference may be due to a difference in the relative amount of DNA in each type of complex or to the structural constrains of linear versus circular DNA. […] Because these cassettes express siRNAs under the control of Pol III promoter as apposed to Pol II in GFP expression unit, it is therefore likely that peptide assisted transfection (PAT) is independent of promoter used, as expected.

[2] = test system: monkey kidney cell Vero-E6; assay: Peptide as additive to TransIt-Oligo reagent transfection of pEFGP-N1; format: cell-based; conditions: 0.1 μg plasmid, 96-well, about 30% confluency, increasing amount of peptide

[Cl-].[Cl-].[Mg+2] [MgCl2]
Effect of other salts on enhancing TAN-mediated transfection (293T cells): showed no effect

[Cl-].[Na+] [NaCl]
Effect of other salts on enhancing TAN-mediated transfection (293T cells): showed no effect

YGRKKRRQRRR [TAT]
Behaviour at slightly increased concentration [1]: quickly precipitated DNA
Binding to linear dsDNA (band shift) [1]: did not bind at the lower concentrations
Effect of control peptide together with CaCl2 (293T cells; control peptides with CaCl2 and DNA): caused cells to lyse
Enhancement of TransIt-Oligo transfection by peptide [2]: did not show such enhancement

YGRKKRRQRRRGQRNPNKKWS [TAN]
Toxicity to treated cells (growth arrest, cell death) (293T cells; peptide/Ca++ transfection): did not show arrest of growth or cell death
